Data: ChEMBL document CHEMBL4308841, “Synthesis, in vitro antiproliferative activity, and kinase inhibitory effects of pyrazole-containing diarylureas and diarylamides” (Eur J Med Chem, 2018)

Each molecule was assayed on IGROV-1 (assay: Growth inhibition of human IGROV1 cells incubated for 48 hrs by sulforhodamine B assay). Settings: IGROV-1, 48 h, read-out: pLC50 (the source's name) (converted).
Type: functional, cell-based

Structure (SMILES) | CC50
COc1cc(Cl)cc(-c2nn(-c3cccc(NC(=O)c4ccc(N5CCOCC5)c(C(F)(F)F)c4)c3)cc2-c2ccncc2)c1 | > 100 µM

Same assay, conditions: IGROV-1, 48 h, read-out: pTGI (converted)

Structure (SMILES) | TGI
COc1cc(Cl)cc(-c2nn(-c3cccc(NC(=O)c4ccc(N5CCOCC5)c(C(F)(F)F)c4)c3)cc2-c2ccncc2)c1 | > 100 µM

The molecules below were run on ACHN (assay: Growth inhibition of human ACHN cells incubated for 48 hrs by sulforhodamine B assay). Settings: read-out: GI50.
Type: functional, cell-based

Structure (SMILES) | GI50
COc1cc(Cl)cc(-c2nn(-c3cccc(NC(=O)c4ccc(N5CCOCC5)c(C(F)(F)F)c4)c3)cc2-c2ccncc2)c1 | 7.31 µM

Same assay, conditions: read-out: LC50 (the source's name)

Structure (SMILES) | CC50
COc1cc(Cl)cc(-c2nn(-c3cccc(NC(=O)c4ccc(N5CCOCC5)c(C(F)(F)F)c4)c3)cc2-c2ccncc2)c1 | > 100 µM

Same assay, conditions: read-out: TGI

Structure (SMILES) | TGI
COc1cc(Cl)cc(-c2nn(-c3cccc(NC(=O)c4ccc(N5CCOCC5)c(C(F)(F)F)c4)c3)cc2-c2ccncc2)c1 | > 100 µM

Same assay, conditions: read-out: pGI50 (converted)

Structure (SMILES) | GI50
COc1cc(Cl)cc(-c2nn(-c3cccc(NC(=O)c4ccc(N5CCOCC5)c(C(F)(F)F)c4)c3)cc2-c2ccncc2)c1 | 7.24 µM

Same assay, conditions: read-out: pLC50 (the source's name) (converted)

Structure (SMILES) | CC50
COc1cc(Cl)cc(-c2nn(-c3cccc(NC(=O)c4ccc(N5CCOCC5)c(C(F)(F)F)c4)c3)cc2-c2ccncc2)c1 | > 100 µM

Same assay, conditions: read-out: pTGI (converted)

Structure (SMILES) | TGI
COc1cc(Cl)cc(-c2nn(-c3cccc(NC(=O)c4ccc(N5CCOCC5)c(C(F)(F)F)c4)c3)cc2-c2ccncc2)c1 | > 100 µM

What follows are molecules tested on CAKI-1 (assay: Growth inhibition of human Caki1 cells incubated for 48 hrs by sulforhodamine B assay). Settings: CAKI-1, 48 h, read-out: GI50.
Type: functional, cell-based

Structure (SMILES) | GI50
COc1cc(Cl)cc(-c2nn(-c3cccc(NC(=O)c4ccc(N5CCOCC5)c(C(F)(F)F)c4)c3)cc2-c2ccncc2)c1 | 4.4 µM

Same assay, conditions: CAKI-1, 48 h, read-out: LC50 (the source's name)

Structure (SMILES) | CC50
COc1cc(Cl)cc(-c2nn(-c3cccc(NC(=O)c4ccc(N5CCOCC5)c(C(F)(F)F)c4)c3)cc2-c2ccncc2)c1 | > 100 µM

Same assay, conditions: CAKI-1, 48 h, read-out: TGI

Structure (SMILES) | TGI
COc1cc(Cl)cc(-c2nn(-c3cccc(NC(=O)c4ccc(N5CCOCC5)c(C(F)(F)F)c4)c3)cc2-c2ccncc2)c1 | > 100 µM

Same assay, conditions: CAKI-1, 48 h, read-out: pGI50 (converted)

Structure (SMILES) | GI50
COc1cc(Cl)cc(-c2nn(-c3cccc(NC(=O)c4ccc(N5CCOCC5)c(C(F)(F)F)c4)c3)cc2-c2ccncc2)c1 | 4.37 µM

Same assay, conditions: CAKI-1, 48 h, read-out: pLC50 (the source's name) (converted)

Structure (SMILES) | CC50
COc1cc(Cl)cc(-c2nn(-c3cccc(NC(=O)c4ccc(N5CCOCC5)c(C(F)(F)F)c4)c3)cc2-c2ccncc2)c1 | > 100 µM

Same assay, conditions: CAKI-1, 48 h, read-out: pTGI (converted)

Structure (SMILES) | TGI
COc1cc(Cl)cc(-c2nn(-c3cccc(NC(=O)c4ccc(N5CCOCC5)c(C(F)(F)F)c4)c3)cc2-c2ccncc2)c1 | > 100 µM

These molecules were tested on HOP-62 (assay: Growth inhibition of human HOP62 cells assessed as cell growth at 0.01 uM incubated for 48 hrs by sulforhodamine B assay relative to control). Settings: HOP-62, 48 h, read-out: Activity.
Type: functional

Structure (SMILES) | growth at 0.01 µM
COc1cc(Cl)cc(-c2nn(-c3cccc(NC(=O)c4ccc(N5CCOCC5)c(C(F)(F)F)c4)c3)cc2-c2ccncc2)c1 | 104%

What follows are molecules tested on SNB-19 (assay: Growth inhibition of human SNB19 cells assessed as cell growth at 0.01 uM incubated for 48 hrs by sulforhodamine B assay relative to control). Settings: SNB-19, 48 h, read-out: Activity.
Type: functional

Structure (SMILES) | growth at 0.01 µM
COc1cc(Cl)cc(-c2nn(-c3cccc(NC(=O)c4ccc(N5CCOCC5)c(C(F)(F)F)c4)c3)cc2-c2ccncc2)c1 | 96%

What follows are molecules tested on U-251 (assay: Growth inhibition of human U251 cells assessed as cell growth at 0.01 uM incubated for 48 hrs by sulforhodamine B assay relative to control). Settings: U-251, 48 h, read-out: Activity.
Type: functional

Structure (SMILES) | growth at 0.01 µM
COc1cc(Cl)cc(-c2nn(-c3cccc(NC(=O)c4ccc(N5CCOCC5)c(C(F)(F)F)c4)c3)cc2-c2ccncc2)c1 | 95%

These molecules were tested on MDA-MB-231 (assay: Growth inhibition of human MDA-MB-231 cells assessed as cell growth at 0.01 uM incubated for 48 hrs by sulforhodamine B assay relative to control). Settings: MDA-MB-231, 48 h, read-out: Activity.
Type: functional

Structure (SMILES) | growth at 0.01 µM
COc1cc(Cl)cc(-c2nn(-c3cccc(NC(=O)c4ccc(N5CCOCC5)c(C(F)(F)F)c4)c3)cc2-c2ccncc2)c1 | 99%

Each molecule was assayed on HCC 2998 (assay: Growth inhibition of human HCC2998 cells assessed as cell growth at 0.1 uM incubated for 48 hrs by sulforhodamine B assay relative to control). Settings: HCC 2998, 48 h, read-out: Activity.
Type: functional

Structure (SMILES) | growth at 0.1 µM
COc1cc(Cl)cc(-c2nn(-c3cccc(NC(=O)c4ccc(N5CCOCC5)c(C(F)(F)F)c4)c3)cc2-c2ccncc2)c1 | 94%

These molecules were tested on OVCAR-5 (assay: Growth inhibition of human OVCAR5 cells assessed as cell growth at 0.1 uM incubated for 48 hrs by sulforhodamine B assay relative to control). Settings: OVCAR-5, 48 h, read-out: Activity.
Type: functional

Structure (SMILES) | growth at 0.1 µM
COc1cc(Cl)cc(-c2nn(-c3cccc(NC(=O)c4ccc(N5CCOCC5)c(C(F)(F)F)c4)c3)cc2-c2ccncc2)c1 | 78%

The molecules below were run on MDA-MB-231 (assay: Growth inhibition of human MDA-MB-231 cells assessed as cell growth at 0.1 uM incubated for 48 hrs by sulforhodamine B assay relative to control). Settings: MDA-MB-231, 48 h, read-out: Activity.
Type: functional

Structure (SMILES) | growth at 0.1 µM
COc1cc(Cl)cc(-c2nn(-c3cccc(NC(=O)c4ccc(N5CCOCC5)c(C(F)(F)F)c4)c3)cc2-c2ccncc2)c1 | 97%

These molecules were tested on K562 (assay: Growth inhibition of human K562 cells assessed as cell growth at 1 uM incubated for 48 hrs by sulforhodamine B assay relative to control). Settings: K562, 48 h, read-out: Activity.
Type: functional

Structure (SMILES) | growth at 1 µM
COc1cc(Cl)cc(-c2nn(-c3cccc(NC(=O)c4ccc(N5CCOCC5)c(C(F)(F)F)c4)c3)cc2-c2ccncc2)c1 | 91%

The molecules below were run on NCI-H23 (assay: Growth inhibition of human NCI-H23 cells assessed as cell growth at 1 uM incubated for 48 hrs by sulforhodamine B assay relative to control). Settings: NCI-H23, 48 h, read-out: Activity.
Type: functional

Structure (SMILES) | growth at 1 µM
COc1cc(Cl)cc(-c2nn(-c3cccc(NC(=O)c4ccc(N5CCOCC5)c(C(F)(F)F)c4)c3)cc2-c2ccncc2)c1 | 96%

What follows are molecules tested on HT-29 (assay: Growth inhibition of human HT-29 cells assessed as cell growth at 1 uM incubated for 48 hrs by sulforhodamine B assay relative to control). Settings: HT-29, 48 h, read-out: Activity.
Type: functional

Structure (SMILES) | growth at 1 µM
COc1cc(Cl)cc(-c2nn(-c3cccc(NC(=O)c4ccc(N5CCOCC5)c(C(F)(F)F)c4)c3)cc2-c2ccncc2)c1 | 93%

These molecules were tested on SF-539 (assay: Growth inhibition of human SF539 cells assessed as cell growth at 1 uM incubated for 48 hrs by sulforhodamine B assay relative to control). Settings: SF-539, 48 h, read-out: Activity.
Type: functional

Structure (SMILES) | growth at 1 µM
COc1cc(Cl)cc(-c2nn(-c3cccc(NC(=O)c4ccc(N5CCOCC5)c(C(F)(F)F)c4)c3)cc2-c2ccncc2)c1 | 57%

These molecules were tested on Malme-3M (assay: Growth inhibition of human MALME-3M cells assessed as cell growth at 1 uM incubated for 48 hrs by sulforhodamine B assay relative to control). Settings: read-out: Activity.
Type: functional

Structure (SMILES) | growth at 1 µM
COc1cc(Cl)cc(-c2nn(-c3cccc(NC(=O)c4ccc(N5CCOCC5)c(C(F)(F)F)c4)c3)cc2-c2ccncc2)c1 | 58%

The molecules below were run on UACC-257 (assay: Growth inhibition of human UACC257 cells assessed as cell growth at 1 uM incubated for 48 hrs by sulforhodamine B assay relative to control). Settings: UACC-257, 48 h, read-out: Activity.
Type: functional

Structure (SMILES) | growth at 1 µM
COc1cc(Cl)cc(-c2nn(-c3cccc(NC(=O)c4ccc(N5CCOCC5)c(C(F)(F)F)c4)c3)cc2-c2ccncc2)c1 | 98%

The molecules below were run on HL-60(TB) (assay: Growth inhibition of human HL-60(TB) cells assessed as cell growth at 100 uM incubated for 48 hrs by sulforhodamine B assay relative to control). Settings: HL-60, 48 h, read-out: Activity.
Type: functional

Structure (SMILES) | growth at 100 µM
COc1cc(Cl)cc(-c2nn(-c3cccc(NC(=O)c4ccc(N5CCOCC5)c(C(F)(F)F)c4)c3)cc2-c2ccncc2)c1 | -15%

These molecules were tested on MOLT-4 (assay: Growth inhibition of human MOLT4 cells assessed as cell growth at 100 uM incubated for 48 hrs by sulforhodamine B assay relative to control). Settings: MOLT-4, 48 h, read-out: Activity.
Type: functional

Structure (SMILES) | growth at 100 µM
COc1cc(Cl)cc(-c2nn(-c3cccc(NC(=O)c4ccc(N5CCOCC5)c(C(F)(F)F)c4)c3)cc2-c2ccncc2)c1 | 29%

Each molecule was assayed on SR (assay: Growth inhibition of human SR cells assessed as cell growth at 100 uM incubated for 48 hrs by sulforhodamine B assay relative to control). Settings: read-out: Activity.
Type: functional

Structure (SMILES) | growth at 100 µM
COc1cc(Cl)cc(-c2nn(-c3cccc(NC(=O)c4ccc(N5CCOCC5)c(C(F)(F)F)c4)c3)cc2-c2ccncc2)c1 | 4%

These molecules were tested on HOP-62 (assay: Growth inhibition of human HOP62 cells assessed as cell growth at 100 uM incubated for 48 hrs by sulforhodamine B assay relative to control). Settings: HOP-62, 48 h, read-out: Activity.
Type: functional

Structure (SMILES) | growth at 100 µM
COc1cc(Cl)cc(-c2nn(-c3cccc(NC(=O)c4ccc(N5CCOCC5)c(C(F)(F)F)c4)c3)cc2-c2ccncc2)c1 | 45%

These molecules were tested on SF-295 (assay: Growth inhibition of human SF295 cells assessed as cell growth at 100 uM incubated for 48 hrs by sulforhodamine B assay relative to control). Settings: SF-295, 48 h, read-out: Activity.
Type: functional

Structure (SMILES) | growth at 100 µM
COc1cc(Cl)cc(-c2nn(-c3cccc(NC(=O)c4ccc(N5CCOCC5)c(C(F)(F)F)c4)c3)cc2-c2ccncc2)c1 | -32%

The molecules below were run on MDA-MB-435 (assay: Growth inhibition of human MDA-MB-435 cells assessed as cell growth at 100 uM incubated for 48 hrs by sulforhodamine B assay relative to control). Settings: MDA-MB-435, 48 h, read-out: Activity.
Type: functional

Structure (SMILES) | growth at 100 µM
COc1cc(Cl)cc(-c2nn(-c3cccc(NC(=O)c4ccc(N5CCOCC5)c(C(F)(F)F)c4)c3)cc2-c2ccncc2)c1 | 42%

The molecules below were run on OVCAR-8 (assay: Growth inhibition of human OVCAR8 cells assessed as cell growth at 100 uM incubated for 48 hrs by sulforhodamine B assay relative to control). Settings: OVCAR-8, 48 h, read-out: Activity.
Type: functional

Structure (SMILES) | growth at 100 µM
COc1cc(Cl)cc(-c2nn(-c3cccc(NC(=O)c4ccc(N5CCOCC5)c(C(F)(F)F)c4)c3)cc2-c2ccncc2)c1 | 32%
